Experimental data as given in patent US5574070A, “Substituted guanidines having high binding to the sigma receptor and the use thereof” (priority 1993, dated 1996).
Structures can show the parent of a compound that is named as a salt. Where two headings read alike, the source gives them in different places. Blank lines part the entries; values can stand above or below the compound they belong to.

Experiments:
[1] = target: sigma receptor; assay: [3H]DTG displacement radioligand binding assay, guinea pig brain membranes
[2] = tested on: anxiety behavior of mice; assay: black:white test box (light/dark exploration) of mice; conditions: for anxiolytic activity: 1 mg/kg
[3] = target: T1, sigma receptor from guinea pig brain (Cavia porcellus, UniProt Q60492); assay: [3H]AZ-DTG binding and photoaffinity labeling of the sigma receptor; conditions: 10 uM
T1 construct: from tissue; host or cells: guinea pig brain membranes
Protocol: The filters were then irradiated with long-wavelength UV light for a 15 minute period. Filter-bound proteins were solubilized with 50 mM Tris pH 7.4, 0.1% sodium dodecyl sulfate. Solubilized proteins were subjected to SDS-polyacrylamide gel electrophoresis.

[4] = target: [3H]MK-801; assay: [3H]MK-801 displacement binding; conditions: read-out: IC50 vs [3H]MK-801; Table II; ± s.e.m. (n)
[5] = list of especially preferred compounds, read-out: IC50 (high binding to the sigma receptor)
[6] = Example 25, guinea pig brain membrane homogenates, read-out: IC50 binding values
[7] = read-out: IC50 vs [3H]DTG, Table I, guinea pig brain membranes
[8] = read-out: IC50 vs [3H]DTG, Table II, ± s.e.m. (n)

T1 sequence (Q60492 whole entry): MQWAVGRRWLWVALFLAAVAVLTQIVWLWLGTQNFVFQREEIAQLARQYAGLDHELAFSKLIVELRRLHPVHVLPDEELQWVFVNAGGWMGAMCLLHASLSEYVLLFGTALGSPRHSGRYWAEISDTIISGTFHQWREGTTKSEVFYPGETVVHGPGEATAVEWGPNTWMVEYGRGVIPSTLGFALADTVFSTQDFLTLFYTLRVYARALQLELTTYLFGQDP

IC50 [1, 5]: 5 nM
Compound: N=C(Nc1ccccc1I)N[C@@H]1C[C@@H]2CC[C@H]1C2 (relative stereo) [N-((±)-endo-2-norbornyl)-N'-(2-iodophenyl)guanidine]
latency to entering the dark compartment ([2]; oral): increase in the latency to entering the dark compartment
numbers of line crossings and/or rears in the light compartment (vs dark) ([2]; oral): increase in the number of rears in the light compartment
proportion of time in light area / percentage of time in black compartment ([2]; oral): decrease in the percentage time spent in the black compartment
sedation: total numbers of rears and line crossings ([2]; oral): did not decrease significantly, showing that the drug was not sedative
latency to entering the dark compartment ([2]; s.c.): dose-dependent increase in the latency to entering the dark compartment
numbers of line crossings and/or rears in the light compartment (vs dark) ([2]; s.c.): significant dose-dependent increase in the number of rears in the light compartment
sedation: total numbers of rears and line crossings ([2]; s.c.): did not decrease significantly, showing that the drug was not sedative

IC50 [1, 5]: 7 nM
Compound: Cc1ccccc1NC(=N)N[C@H]1C[C@@H]2CC[C@H]1C2 (relative stereo) [N-(exo-2-norbornyl)-N'-(2-methylphenyl)guanidine]
latency to entering the dark compartment ([2]; oral): increase in the latency to entering the dark compartment
numbers of line crossings and/or rears in the light compartment (vs dark) ([2]; oral): increase in the number of rears in the light compartment
proportion of time in light area / percentage of time in black compartment ([2]; oral): decrease in the percentage time spent in the black compartment
sedation: total numbers of rears and line crossings ([2]; oral): did not decrease significantly, showing that the drug was not sedative
latency to entering the dark compartment ([2]; s.c.): increase in the latency to entering the dark compartment when administered at 0.1 mg/kg
numbers of line crossings and/or rears in the light compartment (vs dark) ([2]; s.c.): increase in the number of rears in the light compartment
sedation: total numbers of rears and line crossings ([2]; s.c.): did not decrease significantly, showing that the drug was not sedative

Compound: NCCc1c[nH]c2ccc(O)cc12 [5-OH-tryptamine, reference compound]
displacement of [3H]DTG ([1]; 10 uM): no significant displacement
effect on [3H]AZ-DTG labeling of the 29 kD polypeptide [3]: unaffected

IC50 [1, 6]: 12.5 ± 2.2 nM
IC50 [1, 5]: 12.5 nM
IC50 [1, 7]: 13 ± 2 nM
Compound: N=C(NC1CCCCC1)NC12CC3CC(CC(C3)C1)C2 [AdChG, N, Adamantan-1-yl-N'-cyclohexylguanidine HCl]
in vitro [3H]DTG displacement activity [1]: found to possess the aforesaid in vitro [^3 H]DTG displacement activity
latency to entering the dark compartment ([2]; s.c.): dose-dependent increase in the latency to entering the dark compartment
numbers of line crossings and/or rears in the light compartment (vs dark) ([2]; s.c.): increase in the number of rears in the light compartment
sedation: total numbers of rears and line crossings ([2]; s.c.): did not change significantly, showing that the drug was not sedative

IC50 [1, 6]: 6.2 ± 0.7 nM
IC50 [1, 5]: 6.2 nM
IC50 [1, 7]: 5 ± 1 nM
Compound: Cl.N=C(Nc1ccccc1I)NC12CC3CC(CC(C3)C1)C2 [AdIpG, N-(Adamantan-1-yl)-N'-(2-iodophenyl)guanidine HCl]
in vitro [3H]DTG displacement activity [1]: found to possess the aforesaid in vitro [^3 H]DTG displacement activity
latency to entering the dark compartment ([2]; oral): increase in the latency to entering the dark compartment
numbers of line crossings and/or rears in the light compartment (vs dark) ([2]; oral): increase in the numbers of line crossings and rears in the light compartment
sedation: total numbers of rears and line crossings ([2]; oral): did not decrease significantly
anxiolytic activity ([2]; oral): have anxiolytic activity when orally administered
latency to entering the dark compartment ([2]; s.c.): increased in a dose-dependent manner
numbers of line crossings and/or rears in the light compartment (vs dark) ([2]; s.c.): increased at the expense of those in the dark compartment
proportion of time spent in the lighted area ([2]; s.c.): increased, in a dose-dependent manner, the proportion of time the mice spent in the larger, lighted area
sedation: total numbers of rears and line crossings ([2]; s.c.): did not decrease significantly showing that the drug was not sedative at this level

IC50 [1, 6]: 11.8 ± 3.4 nM
IC50 [1, 5]: 16.5 nM
IC50 [1, 7]: 17 ± 3 nM
Compound: N=C(NC12CC3CC(CC(C3)C1)C2)NC12CC3CC(CC(C3)C1)C2 [DAG, N,N'-di-(adamantan-1-yl)guanidine]
in vitro [3H]DTG displacement activity [1]: found to possess the aforesaid in vitro [^3 H]DTG displacement activity
latency to entering the dark compartment ([2]; oral): increase in the latency to entering the dark compartment
numbers of line crossings and/or rears in the light compartment (vs dark) ([2]; oral): increase in the numbers of line crossings and rears in the light compartment
sedation: total numbers of rears and line crossings ([2]; oral): did not decrease significantly
anxiolytic activity ([2]; oral): have anxiolytic activity when orally administered
numbers of line crossings and/or rears in the light compartment (vs dark) ([2]; s.c.): increased at the expense of those in the dark compartment
proportion of time spent in the lighted area ([2]; s.c.): tended to increase the proportion of time the mice spent in the larger, lighted area
sedation: total numbers of rears and line crossings ([2]; s.c.): did not decrease significantly showing that the drug was not sedative at this level

Compound: CC12CC3CC(C)(C1)CC(/N=C(\N)Nc1ccccc1/C=C/c1ccccc1)(C3)C2 [Example F-114-B, N-(3,5-dimethyladamantan-1-yl)-N'-[(E)-2-phenylethenyl]phenylguanidine]
sedation: total numbers of rears and line crossings ([2]; s.c.): did not decrease significantly showing that the drug was not sedative at this level

displacement of [3H]DTG ([1]; 10 uM): no significant displacement
effect on [3H]AZ-DTG labeling of the 29 kD polypeptide [3]: unaffected
Compound: NCCCC(=O)O [GABA, γ-aminobutyric acid, reference compound]

IC50 [1, 5]: 28.5 nM
IC50 [1, 8]: 28.5 nM
IC50 [4]: 506 nM
Compound: N=C(Nc1cccc2c1CCC2)Nc1cccc2c1CCC2 [N,N'-Di-(4-indanyl)-guanidine]

IC50 [1, 5]: 40.1 nM
IC50 [1, 8]: 40.1 nM
IC50 [4]: 209 nM
Compound: N=C(Nc1ccccc1I)Nc1cccc2ccccc12 [N-(1-Naphthyl)-N'-(2-iodophenyl)-guanidine]

Compound: N=C(Nc1ccccc1I)Nc1ccccc1C=Cc1ccccc1 [N-(2-styrylphenyl)-N'-(2-iodophenyl)guanidine]
latency to entering the dark compartment ([2]; i.p.): decreased the latency to entering the dark compartment
numbers of line crossings and/or rears in the light compartment ([2]; i.p.): did not affect the numbers of line crossings or rears in the light compartment
proportion of time in light area / percentage of time in black compartment ([2]; i.p.): No significant change in the percentage time in the black compartment

IC50 [1, 5]: 8.92 nM
IC50 [1, 8]: 8.92 nM
IC50 [4]: > 10000 nM
Compound: N=C(Nc1ccc(F)cc1F)NC12CC3CC(CC(C3)C1)C2 [N-(Adamantan-1-yl)-N'-(2,4-difluorophenyl)guanidine]

IC50 [1, 5]: 4 nM
IC50 [1, 8]: 4.27 nM
IC50 [4]: 31900 nM
Compound: N=C(Nc1ccc(F)cc1C(F)(F)F)NC12CC3CC(CC(C3)C1)C2 [N-(Adamantan-1-yl)-N'-(2-trifluoromethyl-4-fluorophenyl)guanidine]

IC50 [1, 5]: 7.44 nM
IC50 [1, 8]: 7.44 nM
IC50 [4]: 23100 nM
Compound: N=C(Nc1ccccc1C(F)(F)F)NC12CC3CC(CC(C3)C1)C2 [N-(Adamantan-1-yl)-N'-(2-trifluoromethylphenyl)guanidine]

IC50 [1, 5]: 21.9 nM
IC50 [1, 8]: 21.9 nM
IC50 [4]: > 10000 nM
Compound: N=C(Nc1ccc2oc(=O)ccc2c1)NC12CC3CC(CC(C3)C1)C2 [N-(Adamantan-1-yl)-N'-(6-coumarinyl)-guanidine]

IC50 [1, 8]: 43.9 nM
IC50 [4]: 6700 nM
Compound: N=C(Nc1cccc2ccc(=O)oc12)NC12CC3CC(CC(C3)C1)C2 [N-(Adamantan-1-yl)-N'-(8-coumarinyl)-guanidine]

IC50 [1, 6]: 5.5 nM
IC50 [1, 5]: 5.5 nM
IC50 [1, 8]: 4.67 nM
IC50 [4]: 23900 nM
Compound: Cc1cc(Br)ccc1NC(=N)NC1CCCCC1 [N-Cyclohexyl-N'-(2-methyl-4-bromophenyl)guanidine]
in vitro [3H]DTG displacement activity [1]: found to possess the aforesaid in vitro [^3 H]DTG displacement activity

IC50 [1, 6]: 13 ± 1 nM
IC50 [1, 5]: 13 nM
IC50 [1, 7]: 17 ± 5 nM
Compound: Cc1ccccc1NC(=N)NC1CCCCC1 [N-Cyclohexyl-N'-(2-methylphenyl)guanidine]
in vitro [3H]DTG displacement activity [1]: found to possess the aforesaid in vitro [^3 H]DTG displacement activity
latency to entering the dark compartment ([2]; oral): slight increase in the latency to entering the dark compartment
numbers of line crossings and/or rears in the light compartment (vs dark) ([2]; oral): increase in the total numbers of rears in the light compartment
proportion of time in light area / percentage of time in black compartment ([2]; oral): significant decrease in the percentage of time in the black compartment
sedation: total numbers of rears and line crossings ([2]; oral): did not change significantly, showing that the compound was not sedative
latency to entering the dark compartment ([2]; s.c.): increase in the latency to entering the dark compartment
numbers of line crossings and/or rears in the light compartment (vs dark) ([2]; s.c.): increased in a dose-dependent manner at the expense of those in the dark compartment
proportion of time spent in the lighted area ([2]; s.c.): increases significantly the proportion of time the mice spent in the larger, lighted area
sedation: total numbers of rears and line crossings ([2]; s.c.): did not decrease significantly, showing that the drug was not sedative

Compound: NCCc1ccc(O)c(O)c1 [dopamine, reference compound]
displacement of [3H]DTG [1]: no significant displacement
effect on [3H]AZ-DTG labeling of the 29 kD polypeptide [3]: unaffected

displacement of [3H]DTG ([1]; 10 uM): no significant displacement
Compound: CNC(=N)N [methyl-guanidine, reference compound]

Compound: C=CCN1CC[C@]23c4c5ccc(O)c4O[C@H]2C(=O)CC[C@@]3(O)[C@H]1C5 [naloxone, reference compound]
displacement of [3H]DTG ([1]; 10 uM): no significant displacement

IC50 [1, 6]: 233 ± 52 nM
Compound: O=C1CC2(CCCC2)CC(=O)N1CCCCN1CCN(c2nsc3ccccc23)CC1 [tiospirone, reference compound]

Compound: beta-endorphin [reference compound]
displacement of [3H]DTG ([1]; 10 uM): no significant displacement

Compound: dynorphin A [reference compound]
displacement of [3H]DTG ([1]; 10 uM): no significant displacement

Compound: picrotoxin [reference compound]
displacement of [3H]DTG ([1]; 10 uM): no significant displacement
